Measurements: PubChem BioAssay (NCI)
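Step 1: Grow cells in 96-well plates. Step 2: Expose to compound for 48 hours at 5 concentrations. Step 3: Interpolate endpoints linearly; if unreached, use highest concentration. TGI is the concentration that stops growth completely.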

Key:
Experiment in all cases: inhibition of tumour cell growth, NCI panel, 48 h
[1] = system: LOX IMVI melanoma
[2] = system: TK-10 renal
[3] = system: OVCAR-8 ovarian
[4] = system: IGROV1 ovarian
[5] = system: SW-620 colon
[6] = system: SK-MEL-2 melanoma
[7] = system: CCRF-CEM leukemia
[8] = system: ACHN renal
[9] = system: NCI-H522 lung
[10] = system: MALME-3M melanoma
[11] = system: SK-MEL-5 melanoma
[12] = system: SK-MEL-28 melanoma
[13] = system: NCI-H226 lung
[14] = system: COLO 205 colon
[15] = system: A498 renal
[16] = system: HOP-92 NSCLC
[17] = system: HCC-2998 colon
[18] = system: UACC-257 melanoma
[19] = system: HCT-116 colon
[20] = system: A549 NSCLC

Row | Compound | TGI [1] | TGI [2] | TGI [3] | TGI [4] | TGI [5] | TGI [6] | TGI [7] | TGI [8] | TGI [9] | TGI [10] | TGI [11] | TGI [12] | TGI [13] | TGI [14] | TGI [15] | TGI [16] | TGI [17] | TGI [18] | TGI [19] | TGI [20]
1 | CCOc1ccc(C2=C(Cl)c3cc(OC)c(OC)cc3C2Cl)cc1 (centres undefined) | 45.1 µM | > 100 µM | > 100 µM | > 100 µM | > 100 µM | 70.6 µM | > 100 µM | > 100 µM | 49 µM | > 100 µM | 39.3 µM | > 100 µM | > 100 µM | > 100 µM | 90.4 µM | 86.5 µM | – | – | – | –
2 | Nc1ccc2cc(S(=O)(=O)O)cc(O)c2c1N=Nc1ccc(NC(=O)Nc2ccc(N=Nc3c(N)ccc4cc(S(=O)(=O)O)cc(O)c34)c(S(=O)(=O)O)c2)cc1S(=O)(=O)O | > 100 µM | – | > 100 µM | > 100 µM | > 100 µM | > 100 µM | > 100 µM | – | > 100 µM | > 100 µM | > 100 µM | > 100 µM | > 100 µM | > 100 µM | > 100 µM | > 100 µM | > 100 µM | > 100 µM | > 100 µM | > 100 µM
3 | CN(C)CCCc1cccnc1 | > 100 µM | > 100 µM | > 100 µM | > 100 µM | > 100 µM | > 100 µM | > 100 µM | > 100 µM | > 100 µM | > 100 µM | > 100 µM | > 100 µM | > 100 µM | > 100 µM | > 100 µM | > 100 µM | > 100 µM | > 100 µM | > 100 µM | > 100 µM
4 | COc1ccc2c(C)cc(N/N=C/c3sccc3C)nc2c1 | 21.5 µM | 43.3 µM | 30.3 µM | 27.4 µM | 69.4 µM | 29.8 µM | > 100 µM | > 100 µM | 21.9 µM | 20.8 µM | 18.9 µM | 35.8 µM | 25.9 µM | 17.9 µM | – | 47.5 µM | 25.7 µM | 22.4 µM | 16.1 µM | 29.4 µM
5 | CC(=O)Nc1ccc(C2=N/C(=C\c3ccc(Cl)c(Cl)c3)C(=O)O2)cc1 | > 100 µM | > 100 µM | > 100 µM | > 100 µM | > 100 µM | > 100 µM | > 100 µM | > 100 µM | > 100 µM | > 100 µM | > 100 µM | > 100 µM | > 100 µM | > 100 µM | > 100 µM | > 100 µM | > 100 µM | > 100 µM | > 100 µM | > 100 µM
6 | CC1C(=O)C(C)C(c2cccs2)N(N=O)C1c1cccs1 (centres undefined) | > 100 µM | – | > 100 µM | > 100 µM | > 100 µM | > 100 µM | > 100 µM | – | > 100 µM | > 19.7 µM | > 100 µM | > 100 µM | > 100 µM | > 100 µM | > 100 µM | > 100 µM | > 100 µM | > 100 µM | > 100 µM | > 100 µM
7 | O=C1ON(Cc2ccccc2)C(c2ccccc2)N1c1ccccc1 (centres undefined) | > 100 µM | – | > 100 µM | > 100 µM | > 100 µM | > 100 µM | > 100 µM | – | > 100 µM | > 100 µM | > 100 µM | > 100 µM | > 100 µM | > 100 µM | > 100 µM | > 100 µM | > 100 µM | > 100 µM | > 100 µM | > 100 µM
8 | c1ccc2c(c1)ccc1ncccc12 | > 100 µM | > 100 µM | > 100 µM | > 100 µM | > 100 µM | > 100 µM | – | > 100 µM | > 100 µM | > 100 µM | > 100 µM | > 100 µM | > 100 µM | > 100 µM | > 100 µM | > 100 µM | > 100 µM | > 100 µM | > 100 µM | > 100 µM
9 | O=C(N1CCOCC1)C1(c2ccccc2)CCNCC1 | > 100 µM | > 100 µM | > 100 µM | > 100 µM | > 100 µM | > 100 µM | 78.8 µM | > 100 µM | > 100 µM | > 100 µM | > 100 µM | > 100 µM | > 100 µM | > 100 µM | > 100 µM | > 100 µM | – | > 100 µM | > 100 µM | > 100 µM
10 | NC(=O)NC(CC(=O)O)C(=O)O (centres undefined) | > 100 µM | > 100 µM | > 100 µM | > 100 µM | > 100 µM | > 100 µM | > 100 µM | > 100 µM | > 100 µM | > 100 µM | > 100 µM | > 100 µM | > 100 µM | – | > 100 µM | > 100 µM | > 100 µM | > 100 µM | > 100 µM | > 100 µM
11 | COc1ccc(N2C(=O)C3c4[nH]c5ccccc5c4C4CCCCCCCC4C3C2=O)cc1 (centres undefined) | – | > 10 µM | > 10 µM | > 10 µM | > 10 µM | > 10 µM | 8.35 µM | > 10 µM | > 10 µM | > 10 µM | > 10 µM | > 10 µM | > 10 µM | > 10 µM | > 10 µM | – | > 10 µM | – | > 10 µM | > 10 µM
12 | CCc1ccc(CCC(=O)O)nc1 | > 100 µM | > 100 µM | > 100 µM | > 100 µM | > 100 µM | > 100 µM | > 100 µM | > 100 µM | > 100 µM | > 100 µM | > 100 µM | > 100 µM | > 100 µM | > 100 µM | > 100 µM | > 100 µM | > 100 µM | > 100 µM | > 100 µM | > 100 µM
13 | COc1nc(/C=N/NC(N)=S)nc(OC)n1 | – | > 100 µM | > 100 µM | > 100 µM | > 100 µM | > 100 µM | – | > 100 µM | > 100 µM | > 100 µM | – | > 100 µM | > 100 µM | > 100 µM | > 100 µM | > 100 µM | > 100 µM | > 100 µM | > 100 µM | > 100 µM
14 | COc1cc(C2c3cc4c(cc3OC3(O)COC(=O)C23)OCO4)cc(OC)c1OC (centres undefined) | > 100 µM | > 100 µM | > 100 µM | > 100 µM | > 100 µM | > 100 µM | > 100 µM | > 100 µM | 54.1 µM | > 100 µM | – | – | > 100 µM | – | > 100 µM | – | > 100 µM | > 100 µM | > 100 µM | > 100 µM
15 | COc1cc(C2C(Cl)C(=O)N2NC(=O)c2ccc(NC(C)=O)cc2)cc(Br)c1O (centres undefined) | – | > 100 µM | > 100 µM | > 100 µM | > 100 µM | > 100 µM | > 100 µM | > 100 µM | > 100 µM | > 100 µM | > 100 µM | > 100 µM | > 100 µM | > 100 µM | – | > 100 µM | > 100 µM | > 100 µM | > 100 µM | > 100 µM
